#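 Five concentrations, 48 hours, 96-well plates. At the GI50, growth is halved. TGI denotes the concentration required for complete inhibition of growth.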
# Tests used:
# Test in all cases: DTP human tumour cell line panel, 48 h
# [1] = test system: RPMI-8226 leukemia
# [2] = test system: COLO 205 colon
# [3] = test system: OVCAR-3 ovarian
# [4] = test system: MDA-MB-435
# [5] = test system: MDA-MB-231 breast
# [6] = test system: A498 renal
# [7] = test system: EKVX NSCLC
# [8] = test system: DU-145 prostate
# [9] = test system: IGROV1 ovarian
# [10] = test system: LOX IMVI melanoma
# [11] = test system: OVCAR-5 ovarian
# [12] = test system: SK-MEL-2 melanoma
# [13] = test system: HOP-62 NSCLC
# [14] = test system: M14 melanoma
# [15] = test system: UACC-62 melanoma
# [16] = test system: NCI/ADR-RES ovarian
# [17] = test system: HCT-116 colon
# [18] = test system: SNB-75 CNS
# [19] = test system: NCI-H460 lung
# [20] = test system: 786-0 renal
# [21] = test system: HCC-2998 colon
# [22] = test system: BT-549 breast
# [23] = test system: HOP-92 NSCLC
# [24] = test system: SF-295 CNS
# [25] = test system: HL-60(TB) leukemia
# [26] = test system: UO-31 renal
# [27] = test system: PC-3 prostate
# [28] = test system: KM12 colon
# [29] = test system: HT29 colon
# [30] = test system: MALME-3M melanoma
# [31] = test system: CCRF-CEM leukemia
# [32] = test system: U251 CNS
# [33] = test system: SF-539 CNS
# [34] = test system: T-47D breast
# [35] = test system: HCT-15 colon
# [36] = test system: OVCAR-8 ovarian
# [37] = test system: SF-268 CNS
# [38] = test system: OVCAR-4 ovarian
# [39] = test system: RXF 393 renal
# [40] = test system: NCI-H522 lung
# [41] = test system: CAKI-1 renal
# [42] = test system: NCI-H23 lung
# [43] = test system: MCF7 breast
# [44] = test system: MOLT-4 leukemia
# [45] = test system: UACC-257 melanoma
# [46] = test system: SR leukemia
# [47] = test system: SK-OV-3 ovarian
# [48] = test system: TK-10 renal
# [49] = test system: A549 NSCLC
# [50] = test system: SNB-19 CNS
# [51] = test system: SW-620 colon
# [52] = test system: K-562 leukemia
# [53] = test system: SN12C renal
# [54] = test system: MDA-MB-468 breast
# [55] = test system: SK-MEL-28 melanoma
# [56] = test system: HS 578T breast
# [57] = test system: SK-MEL-5 melanoma
smiles,measurement,setting,value
COc1ccc(-c2nc3ccc(-c4nnc(SCc5ccccc5)o4)cc3[nH]2)cc1OC,GI50,[1],21.7 µM
same,TGI,[1],> 100 µM
same,GI50,[2],38 µM
same,TGI,[2],> 100 µM
same,GI50,[3],4.73 µM
same,TGI,[3],88.9 µM
same,GI50,[4],21 µM
same,TGI,[4],> 100 µM
same,GI50,[5],4.28 µM
same,TGI,[5],23.2 µM
same,GI50,[6],> 100 µM
same,TGI,[6],> 100 µM
same,GI50,[7],24.9 µM
same,TGI,[7],> 100 µM
same,GI50,[8],9.71 µM
same,TGI,[8],> 100 µM
same,GI50,[9],36 µM
same,TGI,[9],> 100 µM
same,GI50,[10],4.74 µM
same,TGI,[10],> 100 µM
same,GI50,[11],32.4 µM
same,TGI,[11],> 100 µM
same,GI50,[12],> 100 µM
same,TGI,[12],> 100 µM
same,GI50,[13],3.88 µM
same,TGI,[13],23.2 µM
same,GI50,[14],26.5 µM
same,TGI,[14],> 100 µM
same,GI50,[15],7.2 µM
same,TGI,[15],43.8 µM
same,GI50,[16],11.1 µM
same,TGI,[16],> 100 µM
same,GI50,[17],8.32 µM
same,TGI,[17],> 100 µM
same,GI50,[18],2.24 µM
same,TGI,[18],7.27 µM
same,GI50,[19],5.67 µM
same,TGI,[19],> 100 µM
same,GI50,[20],5.88 µM
same,TGI,[20],40.2 µM
same,GI50,[21],57 µM
same,TGI,[21],> 100 µM
same,GI50,[22],21.3 µM
same,TGI,[22],> 100 µM
same,GI50,[23],4.17 µM
same,TGI,[23],94.6 µM
same,GI50,[24],5.54 µM
same,TGI,[24],> 100 µM
same,GI50,[25],57.5 µM
same,TGI,[25],> 100 µM
same,GI50,[26],57.4 µM
same,TGI,[26],> 100 µM
same,GI50,[27],19.8 µM
same,TGI,[27],> 100 µM
same,GI50,[28],> 100 µM
same,TGI,[28],> 100 µM
same,GI50,[29],16.2 µM
same,TGI,[29],> 100 µM
same,GI50,[30],3.18 µM
same,TGI,[30],11.5 µM
same,GI50,[31],16.7 µM
same,TGI,[31],> 100 µM
same,GI50,[32],4.72 µM
same,TGI,[32],20.4 µM
same,GI50,[33],6.54 µM
same,TGI,[33],> 100 µM
same,GI50,[34],8.53 µM
same,TGI,[34],> 100 µM
same,GI50,[35],13.8 µM
same,TGI,[35],> 100 µM
same,GI50,[36],5.6 µM
same,TGI,[36],> 100 µM
same,GI50,[37],32.7 µM
same,TGI,[37],> 100 µM
same,GI50,[38],3.08 µM
same,TGI,[38],12.3 µM
same,GI50,[39],3.6 µM
same,TGI,[39],> 100 µM
same,GI50,[40],23 µM
same,TGI,[40],> 100 µM
same,GI50,[41],> 100 µM
same,TGI,[41],> 100 µM
same,GI50,[42],11 µM
same,TGI,[42],79.9 µM
same,GI50,[43],13.8 µM
same,TGI,[43],> 100 µM
same,GI50,[44],27.8 µM
same,TGI,[44],> 100 µM
same,GI50,[45],56.4 µM
same,TGI,[45],> 100 µM
same,GI50,[46],6.45 µM
same,TGI,[46],> 100 µM
same,GI50,[47],> 100 µM
same,TGI,[47],> 100 µM
same,GI50,[48],8.62 µM
same,TGI,[48],46.7 µM
same,GI50,[49],4.8 µM
same,TGI,[49],> 100 µM
same,GI50,[50],> 100 µM
same,TGI,[50],> 100 µM
same,GI50,[51],17 µM
same,TGI,[51],> 100 µM
same,GI50,[52],28.3 µM
same,TGI,[52],> 100 µM
same,GI50,[53],7.15 µM
same,TGI,[53],> 100 µM
same,GI50,[54],7.89 µM
same,TGI,[54],38.6 µM
same,GI50,[55],22 µM
same,TGI,[55],> 100 µM
same,GI50,[56],3.5 µM
same,TGI,[56],> 100 µM
same,GI50,[57],7.88 µM
same,TGI,[57],> 100 µM

# Source: PubChem BioAssay (NCI)
